No end group written: not given here.
How the values were obtained:
hKv1.3 = hKv1.3 (Homo sapiens, UniProt P22001); assay: hKv1.3 % inhibition at 1 uM (Table 1); format: cell-based; conditions: for inhibition at 1 µM: read-out: hKv1.3 % inh. 1 uM
hKv1.5 = hKv1.5 (Homo sapiens, UniProt P22460); assay: hKv1.5 % inhibition at 300 nM (Table 1); format: cell-based; conditions: for inhibition at 0.3 µM: read-out: hKv1.5 % inh. 300 nM
[1] = tested on: delayed-type hypersensitivity (DTH) response; conditions: DTH model in vivo; cited from earlier work

Chain of hKv1.3 (P22001 whole entry): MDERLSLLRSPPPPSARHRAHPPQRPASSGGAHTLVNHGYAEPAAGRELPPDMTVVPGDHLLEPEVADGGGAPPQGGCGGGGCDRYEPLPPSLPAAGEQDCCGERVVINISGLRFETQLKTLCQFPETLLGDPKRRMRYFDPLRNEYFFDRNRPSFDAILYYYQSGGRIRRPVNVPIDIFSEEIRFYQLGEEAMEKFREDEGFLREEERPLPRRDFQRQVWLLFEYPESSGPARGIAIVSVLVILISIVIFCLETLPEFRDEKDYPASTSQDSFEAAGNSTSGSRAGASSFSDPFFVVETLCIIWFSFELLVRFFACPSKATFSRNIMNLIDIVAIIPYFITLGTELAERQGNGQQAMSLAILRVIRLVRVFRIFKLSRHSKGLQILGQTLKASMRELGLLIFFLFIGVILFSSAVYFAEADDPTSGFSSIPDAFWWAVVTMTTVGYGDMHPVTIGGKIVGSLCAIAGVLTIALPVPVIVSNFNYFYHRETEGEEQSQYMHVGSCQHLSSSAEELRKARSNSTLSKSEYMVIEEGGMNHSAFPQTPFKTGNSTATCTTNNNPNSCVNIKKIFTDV
Chain of hKv1.5 (P22460 whole entry): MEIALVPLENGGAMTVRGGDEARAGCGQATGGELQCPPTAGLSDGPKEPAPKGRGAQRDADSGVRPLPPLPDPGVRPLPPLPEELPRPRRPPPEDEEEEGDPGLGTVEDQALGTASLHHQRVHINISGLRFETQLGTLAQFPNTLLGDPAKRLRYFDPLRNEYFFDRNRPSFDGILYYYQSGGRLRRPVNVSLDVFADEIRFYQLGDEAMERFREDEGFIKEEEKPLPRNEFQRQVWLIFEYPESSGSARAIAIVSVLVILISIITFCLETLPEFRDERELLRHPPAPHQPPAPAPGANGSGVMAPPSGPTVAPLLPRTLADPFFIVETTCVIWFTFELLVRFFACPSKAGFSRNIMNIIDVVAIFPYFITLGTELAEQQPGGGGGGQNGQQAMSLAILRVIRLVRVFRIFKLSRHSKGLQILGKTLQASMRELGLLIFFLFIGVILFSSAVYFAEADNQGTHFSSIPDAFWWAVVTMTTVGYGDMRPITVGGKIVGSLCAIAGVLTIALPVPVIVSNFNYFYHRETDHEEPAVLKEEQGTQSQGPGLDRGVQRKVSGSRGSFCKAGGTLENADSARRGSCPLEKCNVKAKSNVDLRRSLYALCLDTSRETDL

inhibition at 1 µM (hKv1.3)	inhibition at 0.3 µM (hKv1.5)	Molecule	hKv1.3 % inh. 1 uM (hKv1.3)	hKv1.5 % inh. 300 nM (hKv1.5)	suppression of DTH response [1]
		1-Methyl-1H-imidazole-4-sulfonic acid (4-chloro-benzyl)-(2-ethyl-1-oxo-2,3-dihydro-1H-isoindol-4-yl)-amide [Example 21]	69.8%	23.8%	
		C=C1C[C@@]2(O)[C@@H]3CC[C@@]4(C)[C@@H]5C=CC(=O)OC[C@]5(C(C)OC(C)=O)[C@@H](OC(C)=O)[C@@H](OC(C)=O)[C@@H]4[C@@]3(C)[C@H](OC(C)=O)[C@H](OC(C)=O)[C@@]2(C)C2(C(=O)OC)O[C@H]12 (stereo partly shown) [Correolide]			effective
99.6%	82.4%	CCN1CCc2ccc(N(Cc3ccc(Cl)cc3)S(=O)(=O)c3ccn(C)n3)cc2C1=O [Example 1, 1-Methyl-1H-pyrazole-3-sulfonic acid (4-chloro-benzyl)-(2-ethyl-1-oxo-1,2,3,4-tetrahydro-isoquinolin-7-yl)-amide]			
		CCN1Cc2ccc(N(Cc3ccc(Cl)cc3)S(=O)(=O)c3cccnc3)cc2C1=O [Example 2, Pyridine-3-sulfonic acid (40chloro-benzyl)-(2-ethyl-3-oxo-2,3-dihydro-1H-isoindol-5-yl)-amide]	97.2%	65.0%	
96.4%	76%	O=C1c2cc(N(Cc3ccc(Cl)cc3)S(=O)(=O)c3cccnc3)ccc2CCN1CCO [Example 5, Pyridine-3-sulfonic acid (4-chloro-benzyl)-[2-(2-hydroxy-ethyl)-1-oxo-1,2,3,4-tetrahydro-isoquinolin-7-yl]-amide]			
96.1%	70.1%	CCN1CC(C)(C)c2ccc(N(Cc3ccc(Cl)cc3)S(=O)(=O)c3cn(C)cn3)cc2C1=O [Example 6, 1-Methyl-1H-imidazole-4-sulfonic acid (4-chloro-benzyl)-(2-ethyl-4,4-dimethyl-1-oxo-1,2,3,4-tetrahydro-isoquinolin-7-yl)-amide]			
95.5%	42.6%	Cn1ccc(S(=O)(=O)N(Cc2ccc(Cl)cc2)c2ccc3c(c2)C(=O)NCC3)n1 [Example 7, 1-Methyl-1H-pyrazole-3-sulfonic acid (4-chloro-benzyl)-(1-oxo-1,2,3,4-tetrahydro-isoquinolin-7-yl)-amide]			
94.6%	91.2%	N#Cc1cccc(S(=O)(=O)N(Cc2ccc(Cl)cc2)c2ccc3c(c2)C(=O)NCC3)c1 [Example 8, N-(4-Chloro-benzyl)-3-cyano-N-(1-oxo-1,2,3,4-tetrahydro-isoquinolin-7-yl)-benzenesulfonamide]			
94.5%	76.4%	CN1CCc2ccc(N(Cc3ccc(Cl)cc3)S(=O)(=O)c3ccn(C)n3)cc2C1=O [Example 9, 1-Methyl-1H-pyrazole-3-sulfonic acid (4-chloro-benzyl)-(2-methyl-1-oxo-1,2,3,4-tetrahydro-isoquinolin-7-yl)-amide]			
94.2%	47.1%	Cn1ccc(S(=O)(=O)N(Cc2ccc(Cl)cc2)c2ccc3c(c2)C(=O)N(CCO)CC3)n1 [Example 10, 1-Methyl-1H-pyrazole-3-sulfonic acid (4-chloro-benzyl)-[2-(2-hydroxy-ethyl)-1-oxo-1,2,3,4-tetrahydro-isoquinolin-7-yl]-amide]			
		CCN1Cc2ccc(N(Cc3ccc(Cl)cc3)S(=O)(=O)c3cccc(C#N)c3)cc2C1=O [Example 11, N-(4-Chloro-benzyl)-3-cyano-n-(2-ethyl-3-oxo-2,3-dihydro-1H-isoindol-5-yl)-benzene sulfonamide]	93.8%	86.9%	
		CCN1Cc2cc(N(Cc3ccc(Cl)cc3)S(=O)(=O)c3cccc(C#N)c3)ccc2C1=O [Example 12, N-(4-Chloro-benzyl)-3-cyano-N-(2-ethyl-1-oxo-2,3-dihydro-1H-isoindol-5-yl) benzene sulfonamide]	93.0%	63.2%	
90.5%	36%	O=C1NCCc2ccc(N(Cc3ccc(Cl)cc3)S(=O)(=O)c3cccnc3)cc21 [Example 13, Pyridine-3-sulfonic acid (4-chloro-benzyl)-(1-oxo-1,2,3,4-tetrahydro-isoquinolin-7-yl)-amide]			
89.7%	27.1%	CCN1Cc2ccc(N(Cc3ccc(Cl)cc3)S(=O)(=O)c3cn(C)cn3)cc2C1=O [Example 14, 1-Methyl-1H-imidazole-4-sulfonic acid (4-chloro-benzyl)-(2-ethyl-3-oxo-2,3-dihydro-1H-isoindol-5-yl)-amide]			
		CC1(C)CNC(=O)c2cc(N(Cc3ccc(Cl)cc3)S(=O)(=O)c3cccnc3)ccc21 [Example 15]	88.9%	70.0%	
88.3%	64.2%	Cn1ccc(S(=O)(=O)N(Cc2ccc(Cl)cc2)c2ccc3c(c2)C(=O)NCC3(C)C)n1 [Example 16, 1-Methyl-1H-pyrazole-3-sulfonic acid (4-chloro-benzyl)-(4,4-dimethyl-1-oxo-1,2,3,4-tetrahydro-isoquinolin-7-yl)-amide]			
		CC(C)N1C(=O)c2ccc(N(Cc3ccc(Cl)cc3)S(=O)(=O)c3cn(C)cn3)cc2C1=O [Example 17, 1-Methyl-1H-imidazole-4-sulfonic acid (4-chloro-benzyl)-(2-isopropyl-1,3-dioxo-2,3-dihydro-1-H-isoindol-5-yl)-amide]	79.7%	58.0%	
75.2%	77.3%	CCN1Cc2cc(N(Cc3ccc(Cl)cc3)S(=O)(=O)c3ccn(C)n3)ccc2C1=O [Example 18, 1-Methyl-1H-pyrazole-3-sulfonic acid (4-chloro-benzyl)-(2-ethyl-1-oxo-2,3-dihydro-1H-isoindol-5-yl)-amide]			
		CCN1CCc2cc(N(Cc3ccccc3)S(=O)(=O)c3ccn(C)n3)ccc2C1=O [Example 19, 1-Methyl-1H-pyrazole-3-sulfonic acid benzyl (2-ethyl-1-oxo-1,2,3,4-tetrahydro-isoquinolin-6-yl)-amide]	74.3%	25.4%	
72.6%	34.1%	Cn1cnc(S(=O)(=O)N(Cc2ccc(Cl)cc2)c2ccc3c(c2)C(=O)NCC3(C)C)c1 [Example 20, 1-Methyl-1H-imidazole-4-sulfonic acid (4-chloro-benzyl)-(4,4-dimethyl-1-oxo-1,2,3,4-tetrahydro-isoquinolin-7-yl)-amide]			
67.9%	30.6%	CCN1Cc2cc(N(Cc3ccc(Cl)cc3)S(=O)(=O)c3cn(C)cn3)ccc2C1=O [Example 22, 1-Methyl-1H-imidazole-4-sulfonic acid (4-chloro-benzyl)-(2-ethyl-1-oxo-2,3-dihydro-1H-isoindol-5-yl)-amide]			
58%	26.5%	CCN1CCc2cc(N(Cc3ccccc3)S(=O)(=O)c3cn(C)cn3)ccc2C1=O [Example 23, 1-Methyl-1H-imidazole-4-sulfonic acid benzyl-(2-ethyl-1-oxo-1,2,3,4-tetrahydro-isoquinolin-6-yl)-amide]			
		O=c1ccc2c(OCCCCOc3ccccc3)c3ccoc3cc2o1 [PAP-1]			effective
		N-(4-Chloro-benzyl)-3-cyano-N-(1-oxo-1,2,3,4-tetrahydro-isoquinolin-7-yl)-benzenesulfonamide [Example 3]	97.2%	87.8%	
		margatoxin (TIINVKCTSPKQCLPPCKAQFGQSAGAKCMNGKCKCYPH; ends and bridges not checked; cysteine pairing not given here; UniProt P40755 1-39, looked up) [MgTX]			effectively suppressed

Molecule	inhibition at 1 µM (hKv1.3)	inhibition at 0.3 µM (hKv1.5)	hKv1.3 % inh. 1 uM (hKv1.3)	hKv1.5 % inh. 300 nM (hKv1.5)	suppression of DTH response [1]
CCN1Cc2ccc(N(Cc3ccc(Cl)cc3)S(=O)(=O)c3ccn(C)n3)cc2C1=O [Example 4, 1-Methyl-1H-pyrazole-3-sulfonic acid (4-chloro-benzyl)-(2-ethyl-3-oxo-2,3-dihydro-1H-isoindol-5-yl)-amide]	96.6%	63.8%			

— US8399481B2, “Compounds” (Xention Ltd, priority 2009, dated 2013)
